# Assay results published in PubChem BioAssay (NCI).
#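 Compound exposure: 48 hours, 5 concentrations, 96-well plates. TGI is the concentration that stops growth completely.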
# Assays:
# Test in all cases: NCI anticancer screen, dose series, 48 h
# [1] = system: 786-0 renal
# [2] = system: A498 renal
# [3] = system: A549 NSCLC
# [4] = system: ACHN renal
# [5] = system: CAKI-1 renal
# [6] = system: CCRF-CEM leukemia
# [7] = system: COLO 205 colon
# [8] = system: DLD-1 colon
# [9] = system: DMS 114 small cell lung
# [10] = system: DU-145 prostate
# [11] = system: EKVX NSCLC
# [12] = system: HCC-2998 colon
# [13] = system: HCT-116 colon
# [14] = system: HCT-15 colon
# [15] = system: HL-60(TB) leukemia
# [16] = system: HOP-18 NSCLC
# [17] = system: HOP-62 NSCLC
# [18] = system: HOP-92 NSCLC
# [19] = system: HT29 colon
# [20] = system: IGROV1 ovarian
# [21] = system: K-562 leukemia
# [22] = system: KM12 colon
# [23] = system: KM20L2 colon
# [24] = system: LOX IMVI melanoma
# [25] = system: LXFL 529 NSCLC
# [26] = system: M14 melanoma
# [27] = system: M19-MEL melanoma
# [28] = system: MALME-3M melanoma
# [29] = system: MCF7 breast
# [30] = system: MDA-MB-231 breast
# [31] = system: MDA-MB-435
# [32] = system: MDA-N
# [33] = system: MOLT-4 leukemia
# [34] = system: NCI-H226 lung
# [35] = system: NCI-H23 lung
# [36] = system: NCI-H460 lung
# [37] = system: NCI-H522 lung
# [38] = system: OVCAR-3 ovarian
# [39] = system: OVCAR-4 ovarian
# [40] = system: OVCAR-5 ovarian
# [41] = system: OVCAR-8 ovarian
# [42] = system: PC-3 prostate
# [43] = system: RPMI-8226 leukemia
# [44] = system: RXF 393 renal
# [45] = system: SF-268 CNS
# [46] = system: SF-295 CNS
# [47] = system: SF-539 CNS
# [48] = system: SK-MEL-2 melanoma
# [49] = system: SK-MEL-28 melanoma
# [50] = system: SK-MEL-5 melanoma
# [51] = system: SK-OV-3 ovarian
# [52] = system: SN12C renal
# [53] = system: SNB-19 CNS
# [54] = system: SNB-75 CNS
# [55] = system: SNB-78 CNS
# [56] = system: SR leukemia
# [57] = system: SW-620 colon
# [58] = system: T-47D breast
# [59] = system: TK-10 renal
# [60] = system: U251 CNS
# [61] = system: UACC-257 melanoma
# [62] = system: UACC-62 melanoma
# [63] = system: UO-31 renal
# [64] = system: XF 498 CNS
structure (smiles),measurement,setting,value
CCCCOC(=O)N[C@H]1CCc2cc(OC)c(OC)c(OC)c2-c2ccc(SC)c(=O)cc21,TGI,[1],25.5 µM
same,TGI,[2],27.6 µM
same,TGI,[3],98.9 µM
same,TGI,[4],13.1 µM
same,TGI,[5],25.6 µM
same,TGI,[6],35.8 µM
same,TGI,[7],< 0.01 µM
same,TGI,[8],> 100 µM
same,TGI,[9],< 0.01 µM
same,TGI,[10],< 0.01 µM
same,TGI,[11],> 100 µM
same,TGI,[12],2.29 µM
same,TGI,[13],1.18 µM
same,TGI,[14],> 15.8 µM
same,TGI,[15],0.398 µM
same,TGI,[16],> 100 µM
same,TGI,[17],40.3 µM
same,TGI,[18],30.9 µM
same,TGI,[19],< 0.0281 µM
same,TGI,[20],92.5 µM
same,TGI,[21],65.1 µM
same,TGI,[22],< 0.0464 µM
same,TGI,[23],< 0.01 µM
same,TGI,[24],20.9 µM
same,TGI,[25],29.5 µM
same,TGI,[26],15.6 µM
same,TGI,[27],65.7 µM
same,TGI,[28],46.6 µM
same,TGI,[29],26 µM
same,TGI,[30],2.8 µM
same,TGI,[31],< 0.01 µM
same,TGI,[32],< 0.01 µM
same,TGI,[33],57.8 µM
same,TGI,[34],0.357 µM
same,TGI,[35],8.09 µM
same,TGI,[36],0.115 µM
same,TGI,[37],< 0.01 µM
same,TGI,[38],< 0.0329 µM
same,TGI,[39],> 96.5 µM
same,TGI,[40],91.8 µM
same,TGI,[41],12.7 µM
same,TGI,[42],> 81 µM
same,TGI,[43],17.1 µM
same,TGI,[44],2.07 µM
same,TGI,[45],25.1 µM
same,TGI,[46],< 0.0361 µM
same,TGI,[47],< 0.01 µM
same,TGI,[48],2.02 µM
same,TGI,[49],16.2 µM
same,TGI,[50],< 0.01 µM
same,TGI,[51],7.24 µM
same,TGI,[52],34.2 µM
same,TGI,[53],73 µM
same,TGI,[54],2.99 µM
same,TGI,[55],> 4.64 µM
same,TGI,[56],> 43 µM
same,TGI,[57],79 µM
same,TGI,[58],58.7 µM
same,TGI,[59],52.4 µM
same,TGI,[60],3.87 µM
same,TGI,[61],31.4 µM
same,TGI,[62],24.8 µM
same,TGI,[63],49.5 µM
same,TGI,[64],2.55 µM
